Results reported in patent US20240293551A1, “USE OF ST-TYPE LIPID COMPOUNDS IN PREPARATION OF NUCLEIC ACID DELIVERY REAGENT AND RELATED PRODUCT” (INSTITUTE OF BASIC MEDICAL SCIENCES CHINESE ACADEMY OF …, priority 2021, published 2024).

Test system: PGY-sRNA-26
Assay: In vivo delivery study of lipid-nucleic acid mixture (oral gavage, RT-qPCR of PGY-sRNA-26 in tissues)
Set-up: species or system mouse
Conditions: C57BL/6 mice, gavage, 100 μg lipid: 10 nmol PGY-sRNA-26, 12 hours; for delivery efficacy over each tissue and blood tested (broad-spectrum delivery): all tissues and blood tested; for oral delivery of single-stranded sRNA nucleic acids into mouse intestinal tissue: intestine
Description: 10 nmol of small RNA (as shown in Table 2) was dissolved in 400 μl of DEPC-treated water in a glass tube, 10 μl of the corresponding lipid stock solution was added such that the lipid mass in the system was 100 μg. The mixture was mixed thoroughly, heated in a 90° C. water bath for 15 minutes, and then cooled naturally to obtain the lipid nucleic acid mixture of lipid and small RNA.
C57BL/6 male mice, approximately 6 weeks old, weighing 20-24 g, were obtained from Beijing Vital River Laboratory Animal Technology Co., Ltd. The mice were housed in the SPF-grade animal facility at the Animal Center of the Institute of Basic Medical Sciences, Chinese Academy of Medical Sciences. The mice were fasted for 12 hours before gavage administration.
The resultant lipid nucleic acid mixture was orally administered to each mouse at a dose of 100 μg lipid: 10 nmol single-stranded 3′-methylated small RNA PGY-sRNA-26.
• 1) Blank group (n=4): mice were administered with 500 μl saline by gavage, this group served as a blank control; • 2) Free uptake group (n=4): mice were directly administered with small RNA PGY-sRNA-26 solution (10 nmol/mouse, 500 μl) by gavage, this group served as a negative control; • 3) Lipid-treated group (n=4): mice were administered with 500 μl lipid nucleic acid mixture prepared in step 2 by gavage.
After 12 hours of gavage administration, 500 μl blood from the eyeball of each mouse was sampled, added to 1.5 ml Trizol Reagent LS (purchased from Invitrogen), thoroughly mixed for lysis. 3 ml of Trizol Reagent LSwas added to tissue samples and homogenized for complete lysis, wherein the sampled tissues include heart, liver, spleen, lung, kidney, stomach, intestine, brain, blood, femur. RNA was extracted from 1 ml of the blood or the tissue lysate following the steps below: • Centrifuge at 4° C., 12,000 rpm for 5 min, discard the precipitate, transfer Trizol to a new centrifuge tube; • Add chloroform at 200 μL chloroform/mL Trizol, shake well, stand at room temperature for 5 min; • Centrifuge at 4° C., 12,000 rpm for 15 min; • Take the upper aqueous phase to another centrifuge tube, add isopropanol at 0.4 mL isopropanol/mL Trizol, mix well, and stand at low temperature for 10-20 min; • Centrifuge at 4° C., 12,000 rpm for 15 min, discard the supernatant, RNA precipitated at the bottom of the tube; • Add 1 mL of 75% ethanol, gently shake the centrifuge tube, suspend the precipitate; • Centrifuge at 4° C., 12,000 rpm for 15 min, discard the supernatant, add 1 mL of 75% ethanol, gently shake the centrifuge tube, suspend the precipitate; • Centrifuge at 4° C., 12,000 rpm for 15 min, discard the supernatant, air-dry at room temperature, dissolve RNA samples in 50 μL RNase-free H2O, measure OD value to quantify RNA concentration. 3.3 Reverse Transcription of sRNA to cDNA:
The reverse transcription system is as follows: Template RNA (200 ng/μL) 10 μL, 10×RT Buffer 2.0 μL, 25×dNTP Mix (100 mM) 0.8 μL, U6 RT stem-loop primer (10 μM) 2.0 μL, PGY-sRNA-26 RT stem-loop primer (10 μM) 2.0 μL, MultiScribe™ Reverse Transcriptase (50 U/μL) 1.0 μL, RNAse Inhibitor (40 U/μL) 1.0 μL, nuclease-free H2O 1.2 μL. After transient centrifugation, the reverse transcription system was placed in a PCR machine with the following reaction conditions: (1) 25° C., 10 min; (2) 37° C., 120 min; (3) 85° C., 5 min; (4) 4° C., stop reaction. After the reaction, add 20 μL RNAse-free ddH2O, adjust the final volume to 40 μL. The stem-loop primers used in this reverse transcription process were synthesized by Beijing Tianyi Huiyuan Biotechnology Co., Ltd. (U6 was used as a standard reference gene to calculate its relative expression, because U6 RT primer was used as a reference gene in relative quantification of RT-qPCR reactions for small RNA): […]

SMILES | delivery efficacy over each tissue and blood tested (broad-spectrum delivery) | oral delivery of single-stranded sRNA nucleic acids into mouse blood | oral delivery of single-stranded sRNA nucleic acids into mouse brain tissue | oral delivery of single-stranded sRNA nucleic acids into mouse femur | oral delivery of single-stranded sRNA nucleic acids into mouse heart tissue | oral delivery of single-stranded sRNA nucleic acids into mouse intestinal tissue | oral delivery of single-stranded sRNA nucleic acids into mouse kidney tissue | oral delivery of single-stranded sRNA nucleic acids into mouse liver tissue | oral delivery of single-stranded sRNA nucleic acids into mouse lung tissue | oral delivery of single-stranded sRNA nucleic acids into mouse spleen tissue | oral delivery of single-stranded sRNA nucleic acids into mouse stomach tissue
C[C@]12CCC(=O)C=C1CC[C@@H]1[C@@H]2[C@@H](O)C[C@]2(C)C(=O)CC[C@@H]12 [Lipid 555] | exhibited the best delivery efficacy | can effectively orally deliver | can effectively orally deliver | can effectively orally deliver | can effectively orally deliver | can effectively orally deliver | can effectively orally deliver | can effectively orally deliver | can effectively orally deliver | can effectively orally deliver | can effectively orally deliver
C[C@]12CC[C@H](O)CC1=CC[C@@H]1[C@@H]2CC[C@]2(C)C(=O)CC[C@@H]12 [Lipid 561] | – | can effectively orally deliver | – | can effectively orally deliver | – | – | – | – | – | – | –
CC(C)CCC[C@@H](C)[C@H]1CC[C@H]2[C@@H]3CC[C@H]4CCCC[C@]4(C)[C@H]3CC[C@]12C [Lipid 653, 5α-cholestane (5R,8R,9S,10S,13R,14S,17R)-10,13-dimethyl-17-[(2R)-6-methylheptan-2-yl]-2,3,4,5,6,7,8,9,11,12,14,15,16,17-tetradecahydro-1H-cyclopenta[a]phenanthrene] | exhibited the best delivery efficacy | can effectively orally deliver | can effectively orally deliver | can effectively orally deliver | can effectively orally deliver | can effectively orally deliver | can effectively orally deliver | can effectively orally deliver | can effectively orally deliver | can effectively orally deliver | can effectively orally deliver
CC(C)CCC[C@@H](C)[C@H]1CC[C@H]2[C@@H]3CC[C@H]4C[C@@H](O)CC[C@]4(C)[C@H]3CC[C@]12C [Lipid 583, 5α-cholestan-3β-ol (3S,5S,8R,9S,10S,13R,14S,17R)-10,13-dimethyl-17-[(2R)-6-methylheptan-2-yl]-2,3,4,5,6,7,8,9,11,12,14,15,16,17-tetradecahydro-1H-cyclopenta[a]phenanthren-3-ol] | – | can effectively orally deliver | can effectively orally deliver | can effectively orally deliver | can effectively orally deliver | can effectively orally deliver | – | can effectively orally deliver | can effectively orally deliver | – | can effectively orally deliver
C[C@]12CCC(=O)C=C1CC[C@@H]1[C@@H]2CC[C@@]2(C)[C@H]1CC[C@]2(C)O [Lipid 546] | exhibited the best delivery efficacy | can effectively orally deliver | can effectively orally deliver | can effectively orally deliver | can effectively orally deliver | can effectively orally deliver | can effectively orally deliver | can effectively orally deliver | can effectively orally deliver | can effectively orally deliver | can effectively orally deliver
C[C@]12CCC(=O)C[C@@H]1CC[C@@H]1[C@@H]2CC[C@@]2(C)[C@H]1CC[C@]2(C)O [Lipid 539] | exhibited the best delivery efficacy | can effectively orally deliver | can effectively orally deliver | can effectively orally deliver | can effectively orally deliver | can effectively orally deliver | can effectively orally deliver | can effectively orally deliver | can effectively orally deliver | can effectively orally deliver | can effectively orally deliver
C=C1/C(=C\C=C2/CCC[C@]3(C)[C@@H]([C@H](C)/C=C/[C@H](C)C(C)C)CC[C@@H]23)C[C@@H](O)C[C@@H]1O [Lipid 569] | exhibited the best delivery efficacy | can effectively orally deliver | can effectively orally deliver | can effectively orally deliver | can effectively orally deliver | can effectively orally deliver | can effectively orally deliver | can effectively orally deliver | can effectively orally deliver | can effectively orally deliver | can effectively orally deliver
